Where a SMILES comes first, the peptide text is derived from it. Bridges are numbered along the chain shown (N, C = ends). [ ]: non-standard residue; d: D form. NMeV = CN[C@H](C(=O)O)C(C)C

This is an account of results in US5149778A, “Cyclic peptides for treating herpes infections” (Bio-Mega, Inc., priority 1989, dated 1992).

T1 sequence (P08543 whole entry): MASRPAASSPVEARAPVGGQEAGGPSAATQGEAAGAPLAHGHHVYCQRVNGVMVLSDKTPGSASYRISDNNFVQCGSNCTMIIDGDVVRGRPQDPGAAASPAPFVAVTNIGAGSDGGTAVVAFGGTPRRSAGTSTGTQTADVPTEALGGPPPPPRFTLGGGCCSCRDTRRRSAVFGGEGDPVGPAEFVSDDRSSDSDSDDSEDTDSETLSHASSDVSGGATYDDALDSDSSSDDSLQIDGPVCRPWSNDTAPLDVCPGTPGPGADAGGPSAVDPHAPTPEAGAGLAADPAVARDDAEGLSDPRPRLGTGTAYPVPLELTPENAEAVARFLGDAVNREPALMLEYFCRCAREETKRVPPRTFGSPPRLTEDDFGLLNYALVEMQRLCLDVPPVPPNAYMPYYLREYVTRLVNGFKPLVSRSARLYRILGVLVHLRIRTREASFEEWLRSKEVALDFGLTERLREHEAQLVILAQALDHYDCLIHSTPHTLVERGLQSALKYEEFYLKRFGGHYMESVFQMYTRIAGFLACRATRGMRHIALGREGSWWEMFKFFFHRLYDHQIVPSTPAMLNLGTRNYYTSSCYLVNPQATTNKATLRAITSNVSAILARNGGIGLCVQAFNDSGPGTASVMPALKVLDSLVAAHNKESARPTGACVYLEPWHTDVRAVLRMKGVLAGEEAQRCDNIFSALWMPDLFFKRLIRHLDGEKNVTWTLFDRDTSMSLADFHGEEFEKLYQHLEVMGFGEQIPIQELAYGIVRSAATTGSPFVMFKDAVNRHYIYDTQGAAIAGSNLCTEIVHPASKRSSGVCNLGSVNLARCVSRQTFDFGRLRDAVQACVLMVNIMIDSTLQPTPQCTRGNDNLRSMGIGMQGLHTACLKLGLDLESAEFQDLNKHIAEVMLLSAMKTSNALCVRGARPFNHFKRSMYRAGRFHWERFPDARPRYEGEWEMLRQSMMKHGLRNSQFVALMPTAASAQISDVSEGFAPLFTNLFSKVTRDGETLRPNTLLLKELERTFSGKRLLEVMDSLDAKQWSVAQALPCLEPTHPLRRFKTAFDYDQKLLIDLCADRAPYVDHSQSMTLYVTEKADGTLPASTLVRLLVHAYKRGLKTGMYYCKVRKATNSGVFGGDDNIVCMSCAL

The assay has as its target T1, HSV-1 ribonucleotide reductase (Human herpesvirus 1, UniProt P08543).
T1 construct: obtained from quiescent BHK-21/C13 cells infected with strain F HSV-1 virus; endogenous in cells; host or cells: quiescent BHK-21/C13 cells infected with HSV-1 strain F (10 pfu/cell); partially purified viral enzyme
As to the kind of experiment: Inhibition of Herpes Simplex Virus (HSV, type 1) ribonucleotide reductase. The format is biochemical. Conditions: partially purified enzyme from BHK-21/C13 cells infected with strain F HSV-1; relative to control without peptide; mean of four assays; read-out: IC50 (concentration of the peptide producing 50% of the maximal inhibition of enzyme activity). An excerpt: Inhibition of Herpes Simplex Virus (HSV, type 1) Ribonucleotide Reductase
HSV-1 ribonucleotide reductase (partially purified) was obtained from quiescent BHK-21/C13 cells infected with strain F HSV-1 virus at 10 plaque forming units/cell as described by E. A. Cohen et al., J. Gen. Virol., 66, 733 (1985).
The procedure described by P. Gaudreau et al., J. Biol, Chem., 262, 12413 (1987) was employed. The assay result for each peptide is expressed as the concentration of the peptide producing 50% of the maximal inhibition (IC50) of enzyme activity. The number of units of the enzyme preparation used in each assay was constant, based on the specific activity of the enzyme preparation. The results are relative to the activity obtained in control experiments without peptide and represent the mean of four assays that varied less than 10% with each other.
On to `CC[C@H](C)[C@@H]1NC(=O)[C@H](C(C)C)NC(=O)[C@H](Cc2ccc(O)cc2)NC(=O)C[C@@H](C(=O)N[C@@H](CC(=O)O)C(=O)N[C@@H](CC(C)C)C(=O)O)NC1=O` [example 1] (YVIDDL-OH; lactam N-4), for which the IC50 is 14.3 µM.
In the case of `CC[C@H](C)[C@@H]1NC(=O)[C@H](C(C)C)N(C)C(=O)[C@H](Cc2ccc(O)cc2)NC(=O)C[C@@H](C(=O)N[C@@H](CC(=O)O)C(=O)N[C@@H](CC(C)C)C(=O)O)NC1=O` [example 2] (Y[NMeV]IDDL-OH; lactam N-4), the IC50 stood at 140 µM.
On to `CC[C@H](C)[C@@H]1NC(=O)[C@H](C(C)C)NC(=O)[C@H]([C@@H](C)O)NC(=O)CNC(=O)[C@H](C)NC(=O)[C@H](Cc2ccc(O)cc2)NC(=O)C[C@@H](C(=O)N[C@@H](CC(=O)O)C(=O)N[C@@H](CC(C)C)C(=O)O)NC1=O` [example 3] (YAGTVIDDL-OH; lactam N-7), for which the IC50 was determined as 16 µM.
